pIC50: −log10 of the molar value. “And” between values parts separate entries of the source, which are not always exact repeats. Equal entries are not always repeated. “Also recorded” adds a separate entry of the source. Where two headings read alike, the source gives them in different places.
Columns and labels:
[1] = purified enantiomers, intranasal
Description: Rodent i.n. and i.p. dosing: Studies were conducted in male Wistar rats (6-8 weeks; weighing between 200 gm to 250 gm) obtained from Harlan® Laboratories (Indianapolis, Ind.) that were maintained in a controlled environment and allowed food and water ad libitum. Intranasal administrations were performed according to previously described methods with minor modifications. Briefly, rats were anesthetized with a 1-1.5 mL intraperitoneal (i.p.) dose of 10% chloral hydrate (approved under the protocol RA #13), and kept under anesthesia with additional chloral hydrate as needed throughout the entire experiment. To prevent drainage of nasally dosed solution, the nasal cavity was isolated from the respiratory and gastrointestinal tracts. An incision was made along the neck, and the trachea isolated and transected. The upper part was tied off with a 3-0 silk suture, and the lower part cannulated with PE240 tubing to aid air breathing. Rats were maintained lying on their back, and in this position, given 10 μL (375 mg/mL) of the experimental drug solution per nostril using a micro-syringe connected to 1.5 cm PE-10 tube. The total dose received was 30 mg/kg for each drug solution.
Briefly, prior to extraction, frozen samples were thawed on ice. For plasma samples, 50 μL of the calibration standard or sample were transferred into silanized vials. For brain tissues, the samples were weighed in a 1.7 mL silanized vials to which 4 times the volume of methanol (dilution 1:5) was added. The tissues were stored in −20° C. for 1 h and then homogenized. The calibration curves were developed using plasma and brain from untreated animals as a matrix. For plasma, sample preparation involved a single liquid extraction by addition of 300 μL of methanol as extraction solution with internal standard, followed by vortexing for 30 s and then centrifugation at 12000×g for 10 min. Supernatant was transferred and evaporated to dryness at 40° C. under a gentle stream of nitrogen. For brain tissue, homogenized samples were vortexed and centrifuged as above, and 100 μL supernatant was mixed with 100 μL of internal standard in methanol, and then evaporated to dryness at 40° C. under a gentle stream of nitrogen. […] For derivatization, the residue was reconstituted with 100 μL of n-butanol with 3N HCl and samples were vortexed. The samples were heated at 60° C. in a shaking water bath for 30 min. At the end of 30 min, the derivatized samples were dried under a gentle stream of nitrogen. […] The samples were vortexed and centrifuged. Supernatant (75 μL) was transferred to a 250 μL polypropylene autosampler vial sealed with a Teflon cap and a volume of 10 μL was injected onto the ultral l performance liquid chromatography (UPLC) instrument for quantitative analysis using a temperature-controlled autosampler operating at 10° C.
Chromatographic analysis was performed using an Accela™ ultra high-performance system consisting of an analytical pump, and an autosampler coupled with TSQ Vantage mass spectrometer (Thermo Fisher Scientific Inc., Waltham Mass.). […] The mobile phase was composed of 0.1% formic acid in acetonitrile and 0.1% formic acid in H2O with gradient elution. The total run time for each analyte was 5.0 min.

[2] = non-human primates; halted development; cited from earlier work
[3] = Pharmacokinetics of i.p. versus i.n. administered 2-PMPA in rat plasma and brain tissues; type: in vivo
Description: For i.p. studies, 2-PMPA was administered as a single i.p. dose. All dosing solutions were prepared on the day of the experiment in 50 mM HEPES buffered saline, and pH adjusted to 7.4 before injection. At various time points following drug administration (0.16 h, 0.5 h, 1 h, 3 h, 5 h) post dose, animals (n=3 per time point, except 3 h n=2 animals) were euthanized with CO2, and blood samples were collected in heparinized microtubes by cardiac puncture and tissues (olfactory bulb, frontal cortex, and cerebellum) were dissected and immediately flash frozen (−80° C.). Plasma was prepared by centrifugation immediately after collection of blood samples. All samples were stored in −80° C. until bioanalysis.
The samples were vortexed and centrifuged.
The maximum plasma concentration (Cmax) and time to Cmax (Tmax) were the observed values. The area under the plasma concentration time curve (AUC) value was calculated to the last quantifiable sample (AUClast) by use of the log linear trapezoidal rule. The brain-to-plasma partition coefficients were calculated as a ratio of their AUCs (AUC0-t, brain/AUC0-t, plasma). The elimination half-life (t1/2) was determined by dividing 0.693 by λz.

[4] = Plasma and CSF exposure after i.n. administration in non-human primate; conditions: cynomolgus monkey, 30 min post dose
Description: A male cynomolgus monkey (approximately 3.5 kg, non-drug naive) was housed in a stainless steel cage (size 30″ (76.2 cm) wide×31″ (78.74 cm) deep×31.5″ (80.01 cm) high) maintaining temperature of 64-84° F. (17.8° C.-28.9° C.), humidity of 30-70% with alternating 12-hour light/dark cycle as per the USDA Animal Welfare Act (9 CFR, Parts 1, 2, and 3).
The monkey was sedated with 45 mg of ketamine and 0.25 mg of midazolam given as an intramuscular injection prior to test article administration. Sedation was maintained through blood and cerebrospinal fluid (CSF) sample collections with ketamine/midazolam at a starting rate of 20 mg/kg/hr ketamine and 0.4 mg/kg/hr midazolam. […] The device was actuated for a period of 2 min in one nostril (depositing 100 μL). The nose piece was cleaned with a mist of air and then the same procedure was performed in the second nostril (100 μL). Total dose delivered was 100 mg. CSF sample (target of 50 μL) was obtained by an indwelling cannula placed in the intrathecal space at the cisterna magna at 0.5 h post dose. Blood was collected via venipuncture of the femoral vein at 0.5 h post dose and plasma was obtained by low speed centrifugation at 1500×g for 10 minutes. The plasma was flash-frozen on dry ice after separation. Plasma and CSF samples were stored in a freezer set at −70° C., until bioanalysis.
Standard curves were generated in blank artificial CSF. Calibration curves were constructed in the range of 0.113-22.6 μg/mL. Samples were analyzed on Agilent QTOF mass spectrometer by LC/MS. Samples (20 μL) were injected and separated on an Agilent 1290 LC equipped with an Agilent Eclipse Plus C18 column (2.1×100 mm) packed with 1.8 micron stationary phase. The mobile phase consisted of 0.1% formic acid in water and 0.1% formic acid in acetonitrile with an isocratic elution at 2.5% organic. […] Calibration curves were generated with a correlation coefficient >0.99 in a similar manner as described above.

GCP-II = molecular target: T1, GCP-II (Rattus norvegicus, UniProt P70627); experiment: Ex vivo GCP-II enzymatic (NAAG hydrolyzing) activity in rodent brain tissue after i.n. administration
T1 construct: from tissue; host or cells: rat brain (olfactory bulb, cortex, cerebellum), sonicated in Tris buffer, supernatant
T1 sequence (P70627 whole entry): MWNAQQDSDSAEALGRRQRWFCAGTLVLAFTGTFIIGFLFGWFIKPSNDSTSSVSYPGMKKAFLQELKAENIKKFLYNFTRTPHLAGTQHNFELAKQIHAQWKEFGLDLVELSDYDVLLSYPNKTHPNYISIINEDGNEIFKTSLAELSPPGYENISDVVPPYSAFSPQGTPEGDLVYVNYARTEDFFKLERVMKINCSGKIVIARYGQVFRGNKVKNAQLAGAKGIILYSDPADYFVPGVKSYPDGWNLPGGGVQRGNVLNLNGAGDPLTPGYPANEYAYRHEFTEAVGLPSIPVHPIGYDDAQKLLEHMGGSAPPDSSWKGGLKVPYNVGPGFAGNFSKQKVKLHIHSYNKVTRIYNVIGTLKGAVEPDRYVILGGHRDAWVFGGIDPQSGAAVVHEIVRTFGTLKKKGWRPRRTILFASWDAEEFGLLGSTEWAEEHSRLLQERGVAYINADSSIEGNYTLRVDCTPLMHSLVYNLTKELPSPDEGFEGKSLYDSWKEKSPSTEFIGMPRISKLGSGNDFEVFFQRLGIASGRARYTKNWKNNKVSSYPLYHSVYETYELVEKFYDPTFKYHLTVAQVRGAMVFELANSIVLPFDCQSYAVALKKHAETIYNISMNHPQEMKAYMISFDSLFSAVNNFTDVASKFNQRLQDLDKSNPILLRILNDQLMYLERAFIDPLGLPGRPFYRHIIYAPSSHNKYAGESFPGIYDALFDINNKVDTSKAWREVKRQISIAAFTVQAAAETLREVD
Description: Rodent ex vivo GCP-II enzymatic activity: One half of the brain tissues collected following i.n. administration (lh post dose) was used to determine GCP-II NAAG hydrolyzing activity. In brief, tissues were weighed and immersed in 0.5 mL of ice-cold 50 mM Tris Buffer (pH 7.7 at RT). Each tissue was sonicated for 30-60 seconds using an ultrasonic cell disrupter. After a 2 minute spin at 13,000 g, supernatants were analyzed for protein content and NAAG-hydrolyzing activity measurements were performed as previously described (Rojas et al., 2012; Robinson et al., 1987).

[5] = Pharmacokinetics of i.p. versus i.n. administered 2-PMPA in rat plasma and brain tissues; type: in vivo; conditions: 30 mg/kg i.n.; for Kp: male, Wistar, other: intranasal, 30 mg/kg
[6] = Brain concentrations 1 h after intranasal administration in rats (single time point); type: in vivo; conditions: rat, 30 mg/kg i.n., 1 hr post dose; for concentration at 1 h: male, Wistar, in vivo, 30 mg/kg
[7] = molecular target: glutamate carboxypeptidase II (GCP-II) (Homo sapiens, UniProt Q04609); conditions: GCP-II inhibition, Table 1; read-out: Potency (IC50); cited from earlier work
Sequence of glutamate carboxypeptidase II (GCP-II) (Q04609 whole entry, species assumed): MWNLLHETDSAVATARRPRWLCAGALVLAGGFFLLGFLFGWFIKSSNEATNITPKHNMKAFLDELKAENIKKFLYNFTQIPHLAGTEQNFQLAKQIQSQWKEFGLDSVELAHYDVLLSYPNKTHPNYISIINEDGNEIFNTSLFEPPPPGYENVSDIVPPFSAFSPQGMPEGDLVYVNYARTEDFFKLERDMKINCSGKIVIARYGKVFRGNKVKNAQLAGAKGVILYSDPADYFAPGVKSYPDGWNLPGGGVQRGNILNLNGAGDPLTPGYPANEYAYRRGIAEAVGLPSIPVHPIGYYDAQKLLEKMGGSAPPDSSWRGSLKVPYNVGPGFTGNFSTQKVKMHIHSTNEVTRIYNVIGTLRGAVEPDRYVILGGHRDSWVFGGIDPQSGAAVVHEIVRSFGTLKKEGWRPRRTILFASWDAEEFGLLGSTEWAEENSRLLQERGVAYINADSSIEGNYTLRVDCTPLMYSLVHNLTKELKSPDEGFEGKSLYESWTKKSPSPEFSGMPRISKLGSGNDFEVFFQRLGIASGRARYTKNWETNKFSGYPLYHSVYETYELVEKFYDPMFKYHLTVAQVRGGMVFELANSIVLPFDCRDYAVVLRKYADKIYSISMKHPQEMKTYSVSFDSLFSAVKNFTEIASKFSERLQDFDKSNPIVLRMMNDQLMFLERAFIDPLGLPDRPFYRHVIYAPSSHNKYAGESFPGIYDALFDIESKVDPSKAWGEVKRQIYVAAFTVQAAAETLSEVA

[8] = ex vivo, 1 h after 30 mg/kg i.n., relative to untreated control rats

For `O=C(O)CC[C@@H](CP(=O)(O)O)C(=O)O` [R-2-PMPA], the concentration in cerebellum [1] was 1.78 µg/g, the concentration in cortex [1] was 10.1 µg/g and the “concentration in olfactory bulb” value [1] was 19.3 µg/g.
In the case of `O=C(O)CC[C@H](CP(=O)(O)O)C(=O)O` [S-2-PMPA], the concentration in cerebellum [1] was 2.51 µg/g, the concentration in cortex [1] was 10.4 µg/g and the “concentration in olfactory bulb” value [1] was 28.5 µg/g.
In the case of `O=C(O)CCC(CCCS)C(=O)O` (stereo not shown) [2-MPPA, 2-(3-mercaptopropyl)pentane-dioic acid], the “toxicity observed in primate studies” value [2] is listed as “membranoproliferative glomerular nephritis; also recorded: immunological toxicities”.
In the case of `O=C(O)CCC(CP(=O)(O)O)C(=O)O` (racemic) [2-PMPA, 2-(phosphonomethyl)-pentanedioic acid], the “share of 2-PMPA reaching the brain accounted from the plasma 2-PMPA” value ([3]; i.n. route, pooled plasma and brain data from i.p. and i.n.) was 2%, the Kp ([3]; male, Wistar, rat, brain, intraperitoneal, 30 mg/kg, following systemic administration, read-out: brain-to-plasma ratio) was no more than 0.02 and the fold improvement in brain-to-plasma ratio, intranasal versus intraperitoneal ([3]; male, Wistar, rat, brain, other: intranasal, 30 mg/kg, intranasal versus other route, read-out: improvement in the brain-to-plasma ratio when administered through an intranasal route) was 100. The Kp ([3]; male, Wistar, rat, olfactory bulb, cortex and cerebellum, ip, 30 mg/kg, rat, 30 mg/kg i.p., olfactory bulb, cortex and cerebellum, read-out: brain tissue to plasma ratio based on AUCs (AUC0-t, brain/AUC0-t, plasma)) was less than 0.02, the AUC0-t cerebellum ([3]; rat, 30 mg/kg i.n.) was 5.27 µg·h/g and the AUC0-t cortex ([3]; rat, 30 mg/kg i.n.) was 37.7 µg·h/g. The AUC0-t olfactory bulb ([3]; rat, 30 mg/kg i.n.) was 78.1 µg·h/g, the “plasma Cmax” value ([3]; rat, 30 mg/kg i.n.) was 24700 ng/mL and the AUC0-t cerebellum ([3]; rat, 30 mg/kg i.p.) was 0.80 µg·h/g. It also gave an AUC0-t cortex ([3]; rat, 30 mg/kg i.p.) of 0.84 µg·h/g, an AUC0-t olfactory bulb ([3]; rat, 30 mg/kg i.p.) of 1.15 µg·h/g and an AUC0-t plasma ([3]; rat, 30 mg/kg i.p.) of 50300 ng·h/mL. The apparent clearance ([3]; rat, 30 mg/kg i.p.) was 9.71 mL/min/kg, the “apparent volume of distribution” value ([3]; rat, 30 mg/kg i.p.) was 0.82 L/kg and the “peak plasma concentration (Cmax)” value ([3]; rat, 30 mg/kg i.p.) was 49500 ng/mL. For the same molecule, the “elimination t1/2” value ([3]; rat, 30 mg/kg i.p., plasma) was 59.4 min, the “CSF concentration versus the IC50” value ([4]; i.n.) was greater than 100 fold and the concentration at 0.5 h ([4]; male, CSF, other: intranasal, 100 mg, CSF concentration, 100 mg total i.n.) was 320 ng/mL and ~1.5 µM. The “inhibition of GCP-II activity in cerebellum” value (GCP-II; [8]) was 70%±5%, the “inhibition of GCP-II activity in cortex” value (GCP-II; [8]) was 100% and the “inhibition of GCP-II activity in olfactory bulb” value (GCP-II; [8]) was 100%. For the same molecule, the “inhibition of brain GCP-II enzymatic activity ex-vivo” value (GCP-II; i.n. administration, summary statement) was “complete inhibition”, the “plasma AUC0-t” value [5] was 52300 ng·h/mL and the Kp ([5]; cerebellum, read-out: brain tissue to plasma ratio based on AUCs, cerebellum) was 0.1. For the same molecule, the Kp ([5]; cortex, read-out: brain tissue to plasma ratio based on AUCs, cortex) was 0.71, the Kp ([5]; olfactory bulb, read-out: brain tissue to plasma ratio based on AUCs, olfactory bulb) was 1.49 and the concentration at 1 h ([6]; read-out: concentration in cerebellum) was 2130 ng/g. For the same molecule, the concentration at 1 h ([6]; read-out: concentration in cortex) was 10300 ng/g and the concentration at 1 h ([6]; read-out: concentration in olfactory bulb) was 31200 ng/g.
For “N-[N-[(S)-1,3-dicarboxypropyl]carbamoyl]-L-cysteine [DCMC]”, the pIC50 [7] is listed as 8.51, the concentration in cerebellum [6] is listed as 0.20 µg/g and the concentration in cortex [6] is listed as 2.03 µg/g. For the same molecule, the “concentration in olfactory bulb” value [6] was 2.12 µg/g.

Reference: patent US20230075584A1, “INTRANASAL ADMINISTRATION OF GLUTAMATE CARBOXYPEPTIDASE (GCP-II) INHIBITORS” (The Johns Hopkins University, priority 2015, published 2023)
